Holding throughout (format): cell-based
In assay [1] the test system is second HEK293 cell line (AAV producer cells). The assay can be described thus: AAV productivity at different DMSO concentrations, shake flasks (Example 7). On the procedure: (§1) Cell transfection was performed generally as described in Grieger et al. (2016) Molecular Therapy 24(2): 287-297. Briefly, transfection mixes were prepared by mixing calculated volumes of vector(s), transfection media, and polyethylenimine (PEI), all at ambient temperature, and allowed to equilibrate before the transfection mixes were added to the cells. Post-transfection bioreactor setpoint shifts were performed 2 hours post-transfection, and cells were harvested 72 hours post-transfection. Harvested cells were lysed as described in Grieger et al. (2016) Molecular Therapy 24(2): 287-297. Crude lysate samples were collected following centrifugation to remove cellular debris. Productivity was measured by vector genome titer and capsid yield. Vector genome (VG) titer was determined by droplet digital PCR (ddPCR) by standard methods using primer/probe sets specific to the transgene payload of the vector comprising the transgene. Capsid yield was determined using enzyme-linked immunosorbent assays (ELISAs) by standard methods with an immobilized antibody directed against an epitope of the capsid as encoded by the vector comprising the capsid sequences. Percentage of intact vector genomes (% Full capsids) was calculated by dividing the vector genome productivity determined by ddPCR by the number of capsids determined by ELISA.
The conditions of DMSO supplementation were further tested using different representative AAV particles. Experiments were performed with a second HEK293 cell line according to the methods described in Example 1 using shake flasks.
AAV productivity, in terms of vector genome (VG) titer (FIGS. 9A and 10A), capsid yield (FIGS. 9B and 10B), and percent intact vector genomes (% Full; FIGS. 9C and 10C), was measured as described in Example 1.

In assay [2] the test system is HEK293 cells (AAV producer cells). The assay can be described thus: DMSO time course analysis of AAV productivity (Example 4). The following applies: 1.5% (v/v) DMSO added two hours pre-transfection and up to 30 minutes post-transfection; compared to the other time points tested. On the procedure: (§2) For each parameter tested, HEK293 cells were expanded by shake flask culture with a target seed density of >0.25E6 viable cells/mL and a target final density of <6E6 viable cells/mL. Expanded cells were inoculated into an Applikon 3 L Glass Bioreactor containing the appropriate amount of cell culture medium prior to transfection at a 2 L working volume.
as §1, with “Post-transfection bioreactor setpoint shifts were performed 2 hours post-transfection, and cells were harvested 72 hours post-transfection. Harvested cells were lysed as described in Grieger et al. (2016) Molecular Therapy 24(2): 287-297. Crude lysate samples were collected following centrifugation to remove cellular debris.” left out, “ELISA. […]” for “ELISA.”

The test system is the same in assay [3]. As to the kind of experiment: AAV productivity with culture media additives supplemented two hours post-transfection, shake flasks (Example 3). On the procedure: as §2
as §1, with “Post-transfection bioreactor setpoint shifts were performed 2 hours post-transfection, and cells were harvested 72 hours post-transfection. Harvested cells were lysed as described in Grieger et al. (2016) Molecular Therapy 24(2): 287-297. Crude lysate samples were collected following centrifugation to remove cellular debris.” left out, “ELISA. […]” for “ELISA.”

The test system of assay [4] is second HEK293 cell line (AAV producer cells). As to the kind of experiment: AAV productivity with DMSO supplementation 30-120 minutes post-transfection, 3 L single-use bioreactors (Example 6). The conditions noted are these: DMSO 120 minutes vs 30 minutes post-transfection, pH 7.0, 39° C. On the procedure:
as §1
Based on the findings above, the effects of post-transfection pH, and the effect of supplementing the culture media with DMSO at 30-120 minutes post-transfection were further tested using a different representative AAV particle. Experiments were performed with a second HEK293 cell line according to the methods described in Examples 1 and 5 using 3 L single-use bioreactors.
AAV productivity, in terms of vector genome (VG) titer (FIG. 8A), capsid yield (FIG. 8B), and percent intact vector genomes (% Full; FIG. 8C), was measured as described in Example 1.

Where [5] appears, read: FIG. 9, 0.5% to 2.25% DMSO two hours post-transfection, up to a DMSO concentration of 1.5%.
Setting [6] is: FIG. 10, 0.75% DMSO two hours post-transfection compared with 0% DMSO.
Where [7] appears, read: FIG. 10, 1.5% DMSO two hours post-transfection compared with 0.75% DMSO.

In the case of `C[S+](C)[O-]` [DMSO, dimethyl sulfoxide], the percent full capsids entry in assay [1] (FIG. 9, 0.5% to 2.25% DMSO two hours post-transfection) was “increased”; in assay [1] (FIG. 9, 0.5%, 0.75%, 1.5% and 2.25% DMSO compared with each other), “comparable”; in assay [1] (setting [6]) it was “comparable”; in assay [1] (setting [7]), “increased”; in assay [3] (supplemented two hours post-transfection, as compared to the other additives), “higher percent full capsids”. Besides, the VG titer entry in assay [1] (setting [5]) is recorded as “increased”; in assay [1] (setting [6]) it was “increased”; in assay [1] (setting [7]), “comparable”; in assay [3] (additive supplemented two hours post-transfection, ddPCR on crude lysate, over control conditions with no additive), “general increase”. Also, the capsid titer result in assay [1] (setting [5]) was “increased or comparable”; in assay [1] (setting [6]) it was “increased”; in assay [1] (setting [7]), “decreased”. Besides, the “percent yield of full capsids” value in assay [2] is “higher percent yield of full capsids”. Besides, the VG titers result in assay [4] is “similar”. Also, the capsid yields result in assay [4] is “similar”. In assay [4], the intact vector genomes entry is given as “similar”.

For the origin of these results see patent US20230323395A1, “METHODS AND COMPOSITIONS FOR THE PRODUCTION OF ADENO-[…]” (Homology Medicines, Inc., priority 2021, published 2023).
